Measured values published in patent publication US11866509B2, “Humanized antibodies against CEACAM1” (Famewave Ltd., priority 2014, dated 2024).

T1: CEACAM1 (Homo sapiens, UniProt P13688)
T1 sequence (P13688 35-526): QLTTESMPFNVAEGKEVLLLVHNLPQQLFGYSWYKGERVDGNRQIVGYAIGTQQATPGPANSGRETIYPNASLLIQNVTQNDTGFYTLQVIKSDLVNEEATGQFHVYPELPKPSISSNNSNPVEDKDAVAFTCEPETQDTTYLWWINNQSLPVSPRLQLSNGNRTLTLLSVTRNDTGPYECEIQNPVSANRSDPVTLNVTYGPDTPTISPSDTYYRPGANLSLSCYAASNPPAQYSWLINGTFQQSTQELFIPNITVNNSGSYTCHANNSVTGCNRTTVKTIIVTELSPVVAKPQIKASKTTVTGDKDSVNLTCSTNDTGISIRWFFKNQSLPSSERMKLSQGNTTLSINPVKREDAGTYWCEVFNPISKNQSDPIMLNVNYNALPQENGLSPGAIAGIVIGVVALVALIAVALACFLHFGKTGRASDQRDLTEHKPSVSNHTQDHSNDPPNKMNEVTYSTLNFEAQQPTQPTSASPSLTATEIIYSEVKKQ

B1: CM-10: chimeric anti-CEACAM-1 antibody disclosed in WO 2013/054331 (antibody, V domains shown)
VH: QVQLQQSGAELVRPGTSVKVSCKASGYAFTNNLIEWVKQRPGQGLEWIGVINPGSGDTNYNEKFKGKATLTADKSSNTAYMQLSSLTSDDSAVYFCARGDYYGGFAVDYWGQGTSVTVSS
VL: DIQMTQTTSSLSASLGDRVTISCRTSQDIGNYLNWYQQKPDGTVKLLIYYTSRLHSGVPSRFSGSGSGTDYSLTISNLEQEDIATYFCQQGKSLPRTFGGGTKLEIK

Columns and labels:
[1] = test system: B-Raf V600E cell samples (526mel, 624mel); assay: T-cell induced killing of melanoma cells, LDH release; type: cell-based, human; details: 1 μM, effector-target ratio 5:1, overnight
Procedure: More specifically, whereas only 50% ( 3/6) of the melanoma cells having a wild type B-Raf, i.e. a valine in position 600, expressed detectable levels of CEACAM1 (Ct of 36 and less), 100% (18/18) of the melanoma cells having a mutated B-Raf, i.e. a glutamic acid in position 600, expressed detectable levels of CEACAM1 (Ct of 36 and less). • B. CEACAM1 extracellular staining of cancer cells treated with B-Raf or MEK inhibitors. […] At each time point, CEACAM1 expression on the cells was determined by FACS. Volume equivalents of DMSO (vehicle) were used as control. […] Inhibitor-resistant cancer cells show increase in CEACAM1 expression and restored activity of MAPK pathway. Two vemurafenib-sensitive B-Raf V600E cell samples (526mel, 624mel) and vemurafenib-resistant cell lines derived therefrom were incubated for 2 days with 1 μM vemurafenib. Cells were then analyzed for CEACAM1 protein expression by FACS as described above. […] MAPK activity was measured in vemurafenib-sensitive and vemurafenib-resistant B-Raf V600E (624mel) cell samples by immunoblotting for phosphorylated ERK1/2 (pERK, Thr202/Tyr204), total ERK1/2 and actin after 24 hours of exposure to 160 nM vemurafenib. […] Initial vemurafenib concentration was 0.01 of the determined IC50 (0.64 nM). […] Cell killing was determined by LDH release. […]

[2] = test system: CEACAM1 expression on sk-mel-2 cells; assay: CEACAM1 extracellular staining by FACS, W.T. B-Raf mutated N-Ras cells; type: cell-based, human; details: 1 μM
Procedure: Volume equivalents of DMSO (vehicle) were used as control. […] Cells were then analyzed for CEACAM1 protein expression by FACS as described above. Vemurafenib-resistant cell lines were generated by gradual increase of the inhibitor's concentration in culture, up to 0.32 μM. […] Cells were then tested for CEACAM1 expression using MRG1 (murine antibody to human CEACAM1) in flow cytometry as described above. Total RNA was extracted with TRIZOL and cDNA was generated with a reverse transcriptase, according to routine protocols.

CEACAM1 = biological target: T1, CEACAM1; details: WO 2010/125571, WO 2013/054331; cited from earlier work

Row | Molecule | sensitization to cytotoxic T cells [1] | effect on CEACAM1 expression levels [2] | selectivity to CEACAM1 (CEACAM1)
1 | CCCS(=O)(=O)Nc1ccc(F)c(C(=O)c2c[nH]c3ncc(-c4ccc(Cl)cc4)cc23)c1F [vemurafenib] | significantly sensitizes melanoma cells to cytotoxic T cells | no effect | –
2 | B1 | – | – | highly selective to CEACAM1
